From patent publication US20260325685A1, “Radiopharmaceutical Compositions Targeting Carbonic Anhydrase IX and Uses Thereof” (RayzeBio, Inc., priority 2023, published 2026)
Read-outs that look alike come from different tables or passages of the source.

Key:
[1] = molecular target: T1, human CA-IX (Homo sapiens, UniProt Q16790); test: Surface Plasmon Resonance (SPR) binding kinetics to recombinant human CA-IX (Biacore 8K, single-cycle kinetics, 1:1 binding model)
T1 construct: purchased Acro CA9-H82E3
Outline: (§1)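 Recombinant human CA-IX or CA-XII captured on streptavidin chips (1200-1800 RU) in PBS-P+, pH 7.4. Single-cycle kinetics over 9 analyte concentrations (100-0.39 nM) with 1% DMSO, 120 s association, 1200 s dissociation, 25° C. Reference- and DMSO-corrected curves fit to 1:1 model for on/off rates.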

[2] = molecular target: T2, human CA-XII (Homo sapiens, UniProt O43570); test: Surface Plasmon Resonance (SPR) binding kinetics to recombinant human CA-XII (Biacore 8K, single-cycle kinetics, 1:1 binding model)
T2 construct: purchased Creative BioMart CA12-261H
T2 sequence (O43570 25-354): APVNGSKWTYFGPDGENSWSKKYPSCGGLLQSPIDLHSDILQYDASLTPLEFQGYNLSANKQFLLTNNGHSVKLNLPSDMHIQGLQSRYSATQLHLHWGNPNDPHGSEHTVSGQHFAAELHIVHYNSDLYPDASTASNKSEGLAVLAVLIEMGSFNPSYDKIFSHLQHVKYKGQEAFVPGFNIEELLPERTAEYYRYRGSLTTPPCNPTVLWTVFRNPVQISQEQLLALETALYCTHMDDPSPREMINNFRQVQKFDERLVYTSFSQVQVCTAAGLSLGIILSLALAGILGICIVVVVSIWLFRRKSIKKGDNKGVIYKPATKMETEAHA
Outline: as §1

[3] = read-out: CAIX KD; Chelated Metal: Lu-175; SPR, 25° C., pH 7.4
[4] = read-out: CAXII KD, Chelated Metal: Lu-175, 25° C., pH 7.4
[5] = Chelated Metal: Lu-175; SPR, 25° C., pH 7.4; read-out: CAIX KD
[6] = Chelated Metal: Lu-175, 25° C., pH 7.4, read-out: CAXII KD

Compound | Kd [1, 5] [nM] | Kd [2, 6] [nM] | further results
CC(CCC(=O)N[C@@H](CC(=O)N[C@@H](CC(=O)N[C@@H](CCCCN1CCN(c2ccc(C(=O)Nc3nnc(S(N)(=O)=O)s3)cc2)CC1)C(=O)NCCOCCOCCNC(=O)CN1CCN(CC(=O)O)CCN(CC(=O)O)CCN(CC(=O)O)CC1)C(=O)O)C(=O)O)(c1ccc(O)cc1)c1ccc(O)cc1.[Lu+3] [Compound 121] |  |  | Kd [1, 3]: < 1 nM; Kd [2, 4]: > 10 nM
CC(CCCC(=O)N1CCC(C(N)=O)(C(=O)NCC(=O)N2CCN(C(=O)CC[C@H](C(=O)O)N3CCN(CC(=O)O)CCN(CC(=O)O)CCN(CC(=O)O)CC3)C[C@H]2C(=O)NCCn2cc(C34CC(C(=O)Nc5nnc(S(N)(=O)=O)s5)(C3)C4)nn2)CC1)(c1ccc(O)c(F)c1)c1ccc(O)c(F)c1.[Lu+3] [Compound 127.8] | < 1 | > 10 | 
CC(CCC(=O)N[C@@H](CC(=O)N[C@@H](CC(=O)N1CCN(C(=O)CC[C@H](C(=O)O)N2CCN(CC(=O)O)CCN(CC(=O)O)CCN(CC(=O)O)CC2)C[C@H]1C(=O)NCCn1cc(C23CC(C(=O)Nc4nnc(S(N)(=O)=O)s4)(C2)C3)nn1)C(=O)O)C(=O)O)(c1ccc(O)cc1)c1ccc(O)cc1.[Lu+3] [Compound 127] | < 1 | > 10 | 
CC(CCC(=O)N[C@@H](CC(=O)N[C@@H](CC(=O)NC1(C(=O)NCCn2cc(C34CC(C(=O)Nc5nnc(S(N)(=O)=O)s5)(C3)C4)nn2)CCN(C(=O)CN2CCN(CC(=O)O)CCN(CC(=O)O)CCN(CC(=O)O)CC2)CC1)C(=O)O)C(=O)O)(c1ccc(O)cc1)c1ccc(O)cc1.[Lu+3] [Compound 117] |  |  | Kd [1, 3]: 1 to 2.5 nM; Kd [2, 4]: > 10 nM
NS(=O)(=O)c1nnc(NC(=O)C23CCC(c4cn(CCNC(=O)[C@@H]5CN(C(=O)CN6CCN(CC(=O)O)CCN(CC(=O)O)CCN(CC(=O)O)CC6)CCN5C(=O)CC[C@H](NC(=O)C[C@H](NCc5ccccc5)C(=O)O)C(=O)O)nn4)(CC2)CC3)s1.[Lu+3] [Compound 110] |  |  | Kd [1, 3]: < 1 nM; Kd [2, 4]: < 1 nM
NS(=O)(=O)c1nnc(NC(=O)C23CC(c4cn(CCNC(=O)[C@@H]5CN(C(=O)CN6CCN(CC(=O)O)CCN(CC(=O)O)CCN(CC(=O)O)CC6)CCN5C(=O)C[C@H](Nc5ncc(C(=O)NCC6CC7(CCC7)C6)cn5)C(=O)O)nn4)(C2)C3)s1.[Lu+3] [Compound 111.9] | 1 to 2.5 | > 10 | 
CC(CCOC(=O)N1CCC(C(N)=O)(C(=O)NCC(=O)N2CCN(C(=O)CN3CCN(CC(=O)O)CCN(CC(=O)O)CCN(CC(=O)O)CC3)C[C@H]2C(=O)NCCn2cc(C34CC(C(=O)Nc5nnc(S(N)(=O)=O)s5)(C3)C4)nn2)CC1)(c1ccc(O)cc1)c1ccc(O)cc1.[Lu+3] [Compound 107.57] | 1 to 2.5 | > 10 | 
CC(CCC(=O)N[C@@H](CC(=O)N[C@@H](CC(=O)N1CCN(C(=O)CN2CCN(CC(=O)O)CCN(CC(=O)O)CCN(CC(=O)O)CC2)C[C@H]1C(=O)NCC(=O)N1CCC2(CC1)CC(C(=O)Nc1nnc(S(N)(=O)=O)s1)C2)C(=O)O)C(=O)O)(c1ccc(O)cc1)c1ccc(O)cc1.[Lu+3] [Compound 119] |  |  | Kd [1, 3]: 2.5 to 10 nM; Kd [2, 4]: > 10 nM
NS(=O)(=O)c1nnc(NC(=O)C23CC(c4cn(CCNC(=O)[C@@H]5CN(C(=O)CN6CCN(CC(=O)O)CCN(CC(=O)O)CCN(CC(=O)O)CC6)CCN5C(=O)CNC(=O)C5(C(=O)O)CCN(C(=O)Cc6ccc7cn[nH]c7c6)CC5)nn4)(C2)C3)s1.[Lu+3] [Compound 112.1] | 2.5 to 10 | > 10 | 
C[C@H](Nc1c(F)c(S(N)(=O)=O)c(F)c(F)c1S(=O)(=O)CCOCc1cn(CCNC(=O)[C@H]2CN(C(=O)CN3CCN(CC(=O)O)CCN(CC(=O)O)CCN(CC(=O)O)CC3)CCN2C(=O)C[C@H](NC(=O)[C@@H]2COCCN2C(=O)CCCc2ccc(O)cc2)C(=O)O)nn1)C1CCCC1.[Lu+3] [Compound 107.42] | < 1 | 2.5 to 10 | 
CC(CCC(=O)N[C@@H](CC(=O)N[C@@H](CNC(=O)N1CCN(C(=O)CN2CCN(CC(=O)O)CCN(CC(=O)O)CCN(CC(=O)O)CC2)C[C@H]1C(=O)NCCn1cc(C23CC(C(=O)Nc4nnc(S(N)(=O)=O)s4)(C2)C3)nn1)C(=O)O)C(=O)O)(c1ccc(O)cc1)c1ccc(O)cc1.[Lu+3] [Compound 107.55] | < 1 | 2.5 to 10 | 
CC(CCC(=O)N[C@@H](CC(=O)N[C@@H](CC(=O)N1CCN(C(=O)CN2CCN(CC(=O)O)CCN(CC(=O)O)CC2)C[C@H]1C(=O)NCCn1cc(C23CC(C(=O)Nc4nnc(S(N)(=O)=O)s4)(C2)C3)nn1)C(=O)O)C(=O)O)(c1ccc(O)cc1)c1ccc(O)cc1.[Cu+2] [Compound 126.4] |  |  | Kd ([1]; Chelated Metal: Cu (cold); SPR, 25° C., pH 7.4; read-out: CAIX KD): < 1 nM; Kd ([2]; Chelated Metal: Cu (cold), 25° C., pH 7.4, read-out: CAXII KD): > 10 nM
CC(CCCC(=O)N1CCC(C(=O)O)(C(=O)NCC(=O)N2CCN(C(=O)CN3CCN(CC(=O)O)CCN(CC(=O)O)CCN(CC(=O)O)CC3)C[C@@H]2C(=O)N[C@@H](Cn2cc(C34CC(C(=O)Nc5nnc(S(N)(=O)=O)s5)(C3)C4)nn2)C(=O)O)CC1)(c1ccc(O)cc1)c1ccc(O)cc1.[Lu+3] [Compound 107.23] | < 1 | > 10 | 
CC(CCCC(=O)N1CCC(C(N)=O)(C(=O)NCC(=O)N2CCN(C(=O)CN3CCN(CC(=O)O)CCN(CC(=O)O)CCN(CC(=O)O)CC3)C[C@H]2C(=O)NCCn2cc(C34CC(C(=O)Nc5nnc(S(N)(=O)=O)s5)(C3)C4)nn2)CC1)(c1ccc(O)cc1)c1ccc(O)cc1.[Lu+3] [Compound 107] | < 1 | > 10 | 
CC[C@H]1CN(CC(=O)O)[C@@H](CC)CN(CC(=O)N2CCN(C(=O)CNC(=O)C3(C(N)=O)CCN(C(=O)CCCC(C)(c4ccc(O)cc4)c4ccc(O)cc4)CC3)[C@H](C(=O)NCCn3cc(C45CC(C(=O)Nc6nnc(S(N)(=O)=O)s6)(C4)C5)nn3)C2)[C@@H](CC)CN(CC(=O)O)[C@@H](CC)CN1CC(=O)O.[Lu+3] [Compound 128.1] | < 1 | > 10 | 
CC(C)(CCCC(=O)N1CCC(C(N)=O)(C(=O)NCC(=O)N2CCN(C(=O)CN3CCN(CC(=O)O)CCN(CC(=O)O)CCN(CC(=O)O)CC3)C[C@H]2C(=O)NCCn2cc(C34CC(C(=O)Nc5nnc(S(N)(=O)=O)s5)(C3)C4)nn2)CC1)c1ccc(O)cc1.[Lu+3] [Compound 133] |  |  | Kd [1, 3]: < 1 nM; Kd [2, 4]: > 10 nM
CC(CCCC(=O)N1CCC(C(N)=O)(C(=O)NCC(=O)NC2(C(=O)NCCn3cc(C45CCC(c6cn7nc(S(N)(=O)=O)sc7n6)(CC4)CC5)nn3)CCN(C(=O)CC[C@H](C(=O)O)N3CCN(CC(=O)O)CCN(CC(=O)O)CCN(CC(=O)O)CC3)CC2)CC1)(c1ccc(O)cc1)c1ccc(O)cc1.[Lu+3] [Compound 127.6] | < 1 | < 1 | 
CC(CCC(=O)N[C@@H](CC(=O)N[C@@H](CC(=O)N[C@@H](CCCCn1cc(C23CCC(C(=O)Nc4nnc(S(N)(=O)=O)s4)(CC2)C3)nn1)C(=O)NCCOCCNC(=O)CCC(C(=O)O)N1CCN(CC(=O)O)CCN(CC(=O)O)CCN(CC(=O)O)CC1)C(=O)O)C(=O)O)(c1ccc(O)cc1)c1ccc(O)cc1.[Lu+3] (some centres unmarked) [Compound 100.15] | < 1 | < 1 | 
CC[C@H]1CN(CC(=O)O)[C@@H](CC)CN(CC(=O)N2CCN(C(=O)C[C@H](NC(=O)C[C@H](NC(=O)CCC(C)(c3ccc(O)cc3)c3ccc(O)cc3)C(=O)O)C(=O)O)[C@H](C(=O)NCCn3cc(C45CC(C(=O)Nc6nnc(S(N)(=O)=O)s6)(C4)C5)nn3)C2)[C@@H](CC)CN(CC(=O)O)[C@@H](CC)CN1CC(=O)O.[Lu+3] [Compound 128] | < 1 | > 10 | 
NS(=O)(=O)c1nnc(NC(=O)CCCc2nnn(CCCC[C@H](NC(=O)C[C@H](Nc3cc(NC(=O)c4n[nH]c5ccc(O)cc45)cc(C(=O)O)c3)C(=O)O)C(=O)NCCOCCOCCNC(=O)CN3CCN(CC(=O)O)CCN(CC(=O)O)CCN(CC(=O)O)CC3)c2C(=O)O)s1.[Lu+3] [Compound 102.8] | < 1 | 1 to 2.5 | 
Cc1cc(C(=O)Nc2nnc(S(N)(=O)=O)s2)ccc1-c1cn(CCNC(=O)C2(NC(=O)CNC(=O)C3(C(N)=O)CCN(C(=O)CCCC(C)(c4ccc(O)cc4)c4ccc(O)cc4)CC3)CCN(C(=O)CC[C@H](C(=O)O)N3CCN(CC(=O)O)CCN(CC(=O)O)CCN(CC(=O)O)CC3)CC2)nn1.[Lu+3] [Compound 127.7] | < 1 | > 10 | 
NS(=O)(=O)c1nnc(NC(=O)C23CC(c4cn(CCNC(=O)[C@@H]5CN(C(=O)CN6CCN(CC(=O)O)CCN(CC(=O)O)CCN(CC(=O)O)CC6)CCN5C(=O)C[C@H](Nc5ncc(C(=O)NCc6ccc(C7CC7)cn6)cn5)C(=O)O)nn4)(C2)C3)s1.[Lu+3] [Compound 111.2] | 2.5 to 10 | > 10 | 
CC(C)(C)c1ccc(CC(=O)N[C@@H](CC(=O)N[C@@H](CC(=O)N2CCN(C(=O)CN3CCN(CC(=O)O)CCN(CC(=O)O)CCN(CC(=O)O)CC3)C[C@H]2C(=O)NCCn2cc(C34CC(C(=O)Nc5nnc(S(N)(=O)=O)s5)(C3)C4)nn2)C(=O)O)C(=O)O)cc1.[Lu+3] [Compound 109.27] | 1 to 2.5 | 2.5 to 10 | 
CC(CCCC(=O)N1CCC(C(=O)O)(C(=O)NCC(=O)N[C@@H](CCCCn2cc(C34CC(C(=O)Nc5nnc(S(N)(=O)=O)s5)(C3)C4)nn2)C(=O)NCCOCCOCCNC(=O)CN2CCN(CC(=O)O)CCN(CC(=O)O)CCN(CC(=O)O)CC2)CC1)(c1ccc(O)cc1)c1ccc(O)cc1.[Lu+3] [Compound 102.6] | < 1 | > 10 | 
NS(=O)(=O)c1nnc(NC(=O)C23CC(c4cn(CCNC(=O)[C@@H]5CN(C(=O)CN6CCN(CC(=O)O)CCN(CC(=O)O)CCN(CC(=O)O)CC6)CCN5C(=O)C[C@H](NC(=O)C[C@H](NC(=O)c5coc(C6CC6)n5)C(=O)O)C(=O)O)nn4)(C2)C3)s1.[Lu+3] [Compound 109.8] | 1 to 2.5 | 2.5 to 10 | 
